Reference: ChEMBL document CHEMBL3734665, “Design, synthesis and evaluation of antiestrogen and histone deacetylase inhibitor molecular hybrids” (Bioorg Med Chem, 2015)

Assays:
Histone deacetylase 3 = Histone deacetylase 3 (Homo sapiens, UniProt O15379); experiment: Inhibition of human recombinant HDAC3 using Boc-Lys(Ac)-AMC as substrate after 30 mins by fluorescence assay
[1] = molecular target: T1, Protein deacetylase HDAC6 (Homo sapiens, UniProt Q9UBN7); experiment: Inhibition of human recombinant HDAC6 using Boc-Lys(Ac)-AMC as substrate after 30 mins by fluorescence assay
T1 sequence (Q9UBN7 whole entry): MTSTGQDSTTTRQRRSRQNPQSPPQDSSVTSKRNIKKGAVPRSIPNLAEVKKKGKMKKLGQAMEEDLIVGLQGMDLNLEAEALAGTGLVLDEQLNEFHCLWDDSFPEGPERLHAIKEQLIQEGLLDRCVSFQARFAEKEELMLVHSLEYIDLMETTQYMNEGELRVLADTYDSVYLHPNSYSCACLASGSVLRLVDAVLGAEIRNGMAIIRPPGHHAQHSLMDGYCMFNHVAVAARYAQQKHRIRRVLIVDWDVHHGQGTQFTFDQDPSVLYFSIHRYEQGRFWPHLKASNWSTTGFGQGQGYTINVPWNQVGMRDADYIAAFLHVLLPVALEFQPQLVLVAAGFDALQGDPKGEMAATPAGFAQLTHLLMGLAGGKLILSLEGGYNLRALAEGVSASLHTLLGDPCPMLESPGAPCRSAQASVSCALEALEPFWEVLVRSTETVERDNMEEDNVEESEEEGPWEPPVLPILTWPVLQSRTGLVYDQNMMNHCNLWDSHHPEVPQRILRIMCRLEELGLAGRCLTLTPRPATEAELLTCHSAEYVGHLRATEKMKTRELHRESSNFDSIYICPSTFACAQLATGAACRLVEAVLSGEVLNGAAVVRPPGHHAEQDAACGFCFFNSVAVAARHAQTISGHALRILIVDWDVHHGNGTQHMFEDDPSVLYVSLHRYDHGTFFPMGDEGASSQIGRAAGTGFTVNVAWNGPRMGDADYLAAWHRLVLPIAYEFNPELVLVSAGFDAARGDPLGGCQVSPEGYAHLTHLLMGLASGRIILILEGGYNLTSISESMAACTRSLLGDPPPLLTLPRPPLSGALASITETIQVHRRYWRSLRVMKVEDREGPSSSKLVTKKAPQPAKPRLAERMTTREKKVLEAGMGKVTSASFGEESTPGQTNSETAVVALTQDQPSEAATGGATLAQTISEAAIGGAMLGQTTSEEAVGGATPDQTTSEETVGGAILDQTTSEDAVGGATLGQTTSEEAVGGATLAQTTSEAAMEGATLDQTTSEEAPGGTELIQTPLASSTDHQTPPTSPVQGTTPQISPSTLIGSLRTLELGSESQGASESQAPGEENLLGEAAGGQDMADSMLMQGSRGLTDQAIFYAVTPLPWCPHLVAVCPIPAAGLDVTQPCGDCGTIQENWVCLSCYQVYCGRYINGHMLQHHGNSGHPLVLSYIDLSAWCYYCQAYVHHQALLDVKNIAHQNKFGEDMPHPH

Estrogen receptor [2] = molecular target: T2, Estrogen receptor (Homo sapiens, UniProt P03372); experiment: Antagonist activity at ERalpha in human T47D-KBLuc cells assessed as inhibition of E2-induced transcriptional activity by luciferase reporter gene assay; assay type: cell-based
T2 sequence (P03372 whole entry): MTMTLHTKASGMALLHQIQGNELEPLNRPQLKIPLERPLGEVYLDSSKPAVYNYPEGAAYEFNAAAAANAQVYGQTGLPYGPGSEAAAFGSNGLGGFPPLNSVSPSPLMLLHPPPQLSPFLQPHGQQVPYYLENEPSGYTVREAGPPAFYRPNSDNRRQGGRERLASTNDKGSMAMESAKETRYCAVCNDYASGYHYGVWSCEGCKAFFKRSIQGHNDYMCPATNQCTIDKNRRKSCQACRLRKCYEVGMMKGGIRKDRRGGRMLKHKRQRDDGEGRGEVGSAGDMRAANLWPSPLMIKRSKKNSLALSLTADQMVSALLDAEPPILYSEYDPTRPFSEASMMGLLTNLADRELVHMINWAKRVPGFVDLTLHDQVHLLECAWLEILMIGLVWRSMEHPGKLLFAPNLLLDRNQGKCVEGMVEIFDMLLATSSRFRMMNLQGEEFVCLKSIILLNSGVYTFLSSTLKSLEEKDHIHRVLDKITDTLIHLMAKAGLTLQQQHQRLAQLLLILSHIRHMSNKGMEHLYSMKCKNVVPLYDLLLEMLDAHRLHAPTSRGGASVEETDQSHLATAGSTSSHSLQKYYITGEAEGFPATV

MCF7 = experiment: Antiproliferative activity against human MCF7 cells treated for 48 hrs followed by refreshed every 96 hrs measured on day 10 by Lowry assay; assay type: functional, cell-based
Estrogen receptor [3] = molecular target: T2, Estrogen receptor; experiment: (§1) Antagonist activity at luciferase-fused ERalpha in human HEK293 cells expressing eYFP assessed as reduction of E2-induced estrogenic activity after 2 hrs by BRET assay; assay type: cell-based
[4] = molecular target: T3, Estrogen receptor (Homo sapiens) (UniProt P03372); experiment: as §1; assay type: cell-based
T3 sequence (whole entry): T2 sequence (P03372 whole entry)

MDA-MB-231 = experiment: Antiproliferative activity against human MDA-MB-231 cells treated for 48 hrs followed by refreshed every 96 hrs measured on day 10 by Lowry assay; assay type: functional, cell-based

Sequence of Histone deacetylase 3 (O15379 whole entry): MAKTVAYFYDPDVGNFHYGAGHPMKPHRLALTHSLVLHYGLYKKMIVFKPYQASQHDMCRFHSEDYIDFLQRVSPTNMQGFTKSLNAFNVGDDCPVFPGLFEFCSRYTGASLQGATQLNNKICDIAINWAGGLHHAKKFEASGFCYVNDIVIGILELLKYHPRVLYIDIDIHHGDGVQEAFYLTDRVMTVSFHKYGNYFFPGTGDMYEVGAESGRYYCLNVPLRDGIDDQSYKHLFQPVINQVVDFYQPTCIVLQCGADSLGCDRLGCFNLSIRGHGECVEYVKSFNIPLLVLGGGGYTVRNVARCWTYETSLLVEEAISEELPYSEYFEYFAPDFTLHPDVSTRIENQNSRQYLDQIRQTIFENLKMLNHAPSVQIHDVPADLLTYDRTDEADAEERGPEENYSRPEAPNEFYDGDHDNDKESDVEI

SMILES	IC50 (Histone deacetylase 3) [µM]	IC50 [1] [µM]	IC50 (Estrogen receptor [2]) [µM]	IC50 (MCF7) [µM]	IC50 (Estrogen receptor [3]) [µM]	inhibition [4]	IC50 (MDA-MB-231) [µM]
C[C@]12CC[C@@H]3c4ccc(O)cc4C[C@@H](CCCCCCCCCCC(=O)NO)[C@H]3[C@@H]1CC[C@@H]2O	0.96	1.15	1.06	2.93	0.51	Dose-dependent effect	–
CC/C(=C(\c1ccc(O)cc1)c1ccc(OCCN(C)C)cc1)c1ccccc1 [AFIMOXIFENE]	–	–	–	0.15	–	–	–
C[C@]12CC[C@@H]3c4ccc(O)cc4C[C@@H](CCCCCCCCCCC(=O)Nc4ccccc4N)[C@H]3[C@@H]1CC[C@@H]2O	3.18	> 50	0.72	1.9	0.21	Dose-dependent effect	–
CCCCN(O)C(=O)CCCCCCCCCC[C@@H]1Cc2cc(O)ccc2[C@H]2CC[C@]3(C)[C@@H](O)CC[C@H]3[C@H]12	> 5	> 50	2.1	9.11	2.55	Dose-dependent effect	–
Nc1ccccc1NC(=O)c1ccc(CNC(=O)OCc2cccnc2)cc1 [ENTINOSTAT]	–	–	–	0.35	–	–	–
CCCCN(C)C(=O)CCCCCCCCCC[C@@H]1Cc2cc(O)ccc2[C@H]2CC[C@]3(C)[C@@H](O)CC[C@H]3[C@H]12	–	–	–	0.93	–	–	–
CCCCN(O)C(=O)c1cccc(NC(=O)CCCCCS[C@@H]2Cc3cc(O)ccc3[C@H]3CC[C@]4(C)[C@@H](O)CC[C@H]4[C@@H]32)c1	1.55	43.7	0.18	0.34	0.05	Dose-dependent effect	5.02
